Earlier results as cited in article PMC8201753 (ACS Medicinal Chemistry Letters, 2021).

System: ERα-dependent cells
Details: cited from earlier work

C=CC(C)(C)OC[C@H]1O[C@H](O[C@@H]2C3=C([C@H](C)COC(C)=O)C[C@H](O)[C@]3(C)/C=C3/[C@@H](COC)CC[C@H]3[C@@H](C)[C@H]2O)[C@H](O)[C@@H](OC(C)=O)[C@@H]1O [FC-A, fusicoccin-A]
Growth of ERα-dependent cells: blocks growth
